{
  "source": "ChEMBL document CHEMBL5120838",
  "about": "“Synthesis and biological evaluation of geniposide derivatives as inhibitors of hyperuricemia, inflammatory and fibrosis” (Eur J Med Chem, 2022)",
  "key": {"Mus musculus [1]": {"test_system": "Mus musculus", "assay": "Anti-hyperuricemic activity against adenine and potassium oxonate-induced hyperuricemia Kunming mouse model assessed as reduction in serum uric acid level at 20 mg/kg, po administered via gavage once daily for 4 weeks (reference value: 356.15 +/- 3.31 uM)", "format": "functional"}, "Mus musculus [2]": {"test_system": "Mus musculus", "assay": "Renal protective activity against adenine and potassium oxonate-induced hyperuricemia Kunming mouse model assessed as reduction in urate accumulation in kidney at 20 mg/kg, po administered via gavage for 2 weeks by polarization microscopic analysis", "format": "functional, organism-based"}, "Mus musculus [3]": {"test_system": "Mus musculus", "assay": "Anti-hyperuricemic activity against adenine and potassium oxonate-induced hyperuricemia Kunming mouse model assessed as reduction in serum uric acid level at 20 mg/kg, po administered via gavage once daily for 2 weeks (reference value: 318.16 +/- 3.31 uM)", "format": "functional"}, "Mus musculus [4]": {"organism": "Mus musculus", "details": "Kunming, dose 20.0 mg/kg, route po, time 2.0 weeks", "description": "In vivo inhibition of XOD in adenine and potassium oxonate-induced hyperuricemia Kunming mouse model assessed as reduction in XOD activity in liver at 20 mg/kg, po administered via gavage once daily for 2 weeks"}, "Mus musculus [5]": {"test_system": "Mus musculus", "assay": "Anti-hyperuricemic activity against adenine and potassium oxonate-induced hyperuricemia Kunming mouse model assessed as reduction in serum creatinine level at 20 mg/kg, po administered via gavage once daily for 2 weeks (reference value: 87.62 +/- 0.67 uM)", "format": "functional"}, "Mus musculus [6]": {"test_system": "Mus musculus", "assay": "Anti-hyperuricemic activity against adenine and potassium oxonate-induced hyperuricemia Kunming mouse model assessed as blood urea nitrogen level at 20 mg/kg, po administered via gavage once daily for 4 weeks (reference value: 15.25 +/- 1.21 mM)", "format": "functional"}, "Mus musculus [7]": {"test_system": "Mus musculus", "assay": "Anti-hyperuricemic activity against adenine and potassium oxonate-induced hyperuricemia Kunming mouse model assessed as reduction in creatinine level at 20 mg/kg, po administered via gavage once daily for 4 weeks (reference value: 76.87 +/- 0.67 uM)", "format": "functional"}, "Mus musculus [8]": {"test_system": "Mus musculus", "assay": "Anti-hyperuricemic activity against adenine and potassium oxonate-induced hyperuricemia Kunming mouse model assessed as blood urea nitrogen level at 20 mg/kg, po administered via gavage once daily for 2 weeks (reference value: 9.88 +/- 1.21 mM)", "format": "functional"}},
  "note": "The source made the active and inactive calls. The rule behind the calls is not given here.",
  "data": [
    {"molecule": "Oc1ncnc2[nH]ncc12", "note": "[ALLOPURINOL]", "values": [
      {"measurement": "Activity", "setting": "Mus musculus [1]", "result": 193.68, "unit": "µM"},
      {"measurement": "Activity", "setting": "Mus musculus [2]", "result": "Active"},
      {"measurement": "Activity", "setting": "Mus musculus [3]", "result": 233.62, "unit": "µM"},
      {"measurement": "inhibition", "setting": "Mus musculus [4]", "result": "Active"},
      {"measurement": "Activity", "setting": "Mus musculus [5]", "result": 63.31, "unit": "µM"},
      {"measurement": "Activity", "setting": "Mus musculus [6]", "result": 12.58, "unit": "mM"},
      {"measurement": "Activity", "setting": "Mus musculus [7]", "result": 47.26, "unit": "µM"},
      {"measurement": "Activity", "setting": "Mus musculus [8]", "result": 6.3, "unit": "mM"}
    ]}
  ]
}
